Test results taken from article PMC4391943, “Novel Epigallocatechin-3-Gallate (EGCG) Derivative as a New Therapeutic Strategy for Reducing Neuropathic Pain after Chronic Constriction Nerve Injury in Mice” (PLoS ONE, 2015).

Legend:
[1] = biological target: T1, fatty acid synthase (FASN) (Mus musculus, UniProt P19096); experiment: Fatty acid synthase activity in the dorsal horn of the spinal cord of treated CCI-mice (NADPH oxidation, A340); type: in vivo; conditions: 50 mg/Kg, n = 5; for FASN activity, % of vehicle group: 14 dpi
T1 construct: The dorsal horn of the spinal cord tissue was homogenized in lysis buffer; from tissue; host or cells: dorsal horn of the spinal cord of female Balb-c mice (CCI model)
Protocol: For dose response studies, EGCG and the two synthetic EGCG derivatives compound 23 and compound 30 were administered by intra-peritoneal injection at 10, 30, 50 and 100 mg/Kg (n = 5 mice/compound/dose), 30 minutes after the CCI. To analyze the time-dependent effect EGCG and the two synthetic EGCG derivatives compound 23 and compound 30 were administered by intra-peritoneal injection at 50 mg/Kg (n = 15 mice/compound), 30 minutes after the CCI. Another set of animals were used to study the effect of 50 mg/kg of EGCG and the two synthetic EGCG derivatives compound 23 and compound 30 at 14 dpi (n = 15 mice/compound). In all cases, the administration was daily repeated during the first week. All compounds were dissolved in DMSO/saline solution (1:9; v/v), used as vehicle group.
The fatty acid synthase (FASN) activity was assayed in particle-free supernatants by recording spectrophotometrically at 37°C (Lambda Bio 20, Perkin Elmer Boston, MA, USA, EUA) and measuring the decrease of A340 nm due to oxidation of NADPH as previously described. Briefly, mice (n = 5 per group) were sacrificed with sodium pentobarbital (90 mg/kg; i.p.) at 14 and 56 dpi. Spinal cord segments distal to T12 vertebra were quickly removed and snap frozen. The dorsal horn of the spinal cord tissue was homogenized in lysis buffer (250mM sucrose, 20 mM HEPES pH 7.6, 2 mM MgCl2, 1 mM DTT, 1 mM EDTA, 50 mM NaF, 2 mM phenylmethylsulfonyl fluoride (PMSF), 1 μg/μL aprotinin, 1 μg/μL leupeptin, 2 mM sodium orthovanadate). Homogenized samples were centrifuged at 3,500 x g for 10 minutes, and then supernatant was collected and centrifuged at 100,000 x g for 30 minutes to obtain supernatants particle-free. The protein concentrations were determined using the Dc protein assay kit. A 90 μg amount of protein was used for the reaction. A pre-incubation during 15 minutes at 37°C in 0.2 M of potassium phosphate buffer, pH = 7.0 was kept for temperature equilibration. Then, samples were added to the reaction mixture (200 mM potassium phosphate buffer, pH 7.0; 1 mM EDTA; 1 mM dithiothreitol, 30 μM Acetyl-CoA and 0.24 mM NADPH) and then were monitored at 340 nm for 3 minutes to measure background NADPH oxidation. After the addition of 50 μM of malonyl-CoA, the reaction was assayed for 10 minutes to determine FASN-dependent oxidation of NADPH. Rates were corrected with the background rate of NADPH oxidation.

TNF-α, IL-1β and IL-6 = experiment: Quantitative RT-PCR of cytokine mRNA in the dorsal horn of the spinal cord; type: in vivo, mice; conditions: 50 mg/Kg
Protocol: Total RNA was isolated from dorsal horn of spinal cord segments distal to T12 vertebra of all groups (n = 5 mice per group) using the Total RNA isolation nucleospin RNA II Kit. Purified RNA (600 ng) was reverse transcribed using the StrataScript First Strand cDNA Synthesis System. The cDNA synthesis was performed at 42°C for 60 minutes according to the manufacturer’s instructions. The cDNA was then analyzed by quantitative RT-PCR using the following TaqMan Gene Expression Assays (Applied Biosystems, Foster City, CA): 18S, HS99999901_s1; TNF-α, Mm00443258_m1; IL-1β, Mm00434228_m1; IL-6, Mm00446190_m1. The RT-PCR was performed as previously described. Analysis and quantification was obtained with the comparative quantification analysis program of the Mx-Pro Q-PCR Analysis software version 3.0 (Strategene).

NF-κB = experiment: Western blot of nuclear NF-κB levels in the dorsal horn of the spinal cord; type: in vivo, mice; conditions: 50 mg/Kg, 14 dpi
Protocol: Subcellular fractionation was obtained by differential centrifugation as described elsewhere. Briefly, tissue was homogenized in lysis buffer (10 mM Tris-HCl pH 7.5, 1 mM EDTA, 1 mM Na3VO4, 0.25 M sucrose, 2 mM PMSF, 1 μg/μL aprotinin, 1 μg/μL leupeptin, 2 mM sodium orthovanadate). The homogenate was centrifuged at 2,000 × g for 10 min at 4°C to separate the nuclei fraction (P1). The P1 was resuspended in lysis buffer. The resulting supernatant was centrifuged at 10,000×g for 15 min at 4°C to obtain a crude membrane fraction (P2). The P2 was resuspended and incubated in the lysis buffer containing 0.5% Triton X-100 for 15 min, and then centrifuged at 25,000 × g for 20 min to obtain the synaptosomal membrane fraction (P3). Finally, the P3 was resuspended in lysis buffer and centrifuged on a discontinuous sucrose gradient (0.8 M, 1 M and 1.2 M) at 150,000×g for 2 h. Synaptic plasma membrane (SPM) was collected from the 1:1.2 M interface and resuspended in 50 mM HEPES, 2 mM EDTA, 1 mM PMSF, 10 μg/ml aprotinin, 1 μg/ml leupeptin and 2 mM sodium orthovanadate.
Western blotting was performed as previously described. The following primary antibodies were used: anti-FASN (1:1000, BD Bioscience, San Jose, CA); anti-TNF-α, anti-IL-1β, anti-IL-6 and anti-NFκB (all 1:500, Santa Cruz Biotechnology, Santa Cruz, CA); anti-phosphoNMDAR2B (Tyr1472) (1:2000, Affinity Bioreagents, Golden, CO) and anti-NMDAR2B (1:1000, Chemicon, Temecula, CA). Loading control was performed by reprobing the membranes with anti-actin (1:10,000; MP Biochemicals, Aurora, OH), anti-NeuN (1:1,000; Chemicon) or anti-N-cadherin (1:1000, BD Bioscience). Membranes were incubated with the corresponding horseradish peroxidase-conjugated antibody (1:2,000; Promega, Madison, WI). Immunoreactive bands were visualized using the Western Blotting Luminol Reagent and quantified by a computer-assisted densitometer (Gel-Pro Analyzer, version 4, Media Cybernetics).

[2] = Serum stability study, mouse serum; type: in vitro ADME; conditions: mouse (Balb/c) serum, 37°C, 75% serum, 0.5 mM compound; for half-life at 0.5 mM: mouse serum (75% final serum content), read-out: half-life (t1/2) (converted)
Protocol: Peptide stabilities were assayed in diluted serum as previously described. Human serum (Sigma, S7023) or mouse serum (Europa Bioproducts, EQSM-0100) were incubated at 37°C for 10 min. The assay was initiated upon the addition of the test compound solved in PBS to the serum (75% final serum content) for a final compound concentration of 0.5 mM. Then, 500 µL aliquots of the incubations were taken for the following time points: 0, 15, 30, 60, 120 and 240 min. The aliquots were mixed with 750 µL of cold acetonitrile (ACN) and incubated at 4°C for 10 min to precipitate serum proteins. The supernatant was collected for each sample after centrifugation at 39,000 g for 10 min and were immediately analyzed by high performance liquid chromatography-mass spectrometry (HPLC-MS).

T1 sequence (P19096 whole entry): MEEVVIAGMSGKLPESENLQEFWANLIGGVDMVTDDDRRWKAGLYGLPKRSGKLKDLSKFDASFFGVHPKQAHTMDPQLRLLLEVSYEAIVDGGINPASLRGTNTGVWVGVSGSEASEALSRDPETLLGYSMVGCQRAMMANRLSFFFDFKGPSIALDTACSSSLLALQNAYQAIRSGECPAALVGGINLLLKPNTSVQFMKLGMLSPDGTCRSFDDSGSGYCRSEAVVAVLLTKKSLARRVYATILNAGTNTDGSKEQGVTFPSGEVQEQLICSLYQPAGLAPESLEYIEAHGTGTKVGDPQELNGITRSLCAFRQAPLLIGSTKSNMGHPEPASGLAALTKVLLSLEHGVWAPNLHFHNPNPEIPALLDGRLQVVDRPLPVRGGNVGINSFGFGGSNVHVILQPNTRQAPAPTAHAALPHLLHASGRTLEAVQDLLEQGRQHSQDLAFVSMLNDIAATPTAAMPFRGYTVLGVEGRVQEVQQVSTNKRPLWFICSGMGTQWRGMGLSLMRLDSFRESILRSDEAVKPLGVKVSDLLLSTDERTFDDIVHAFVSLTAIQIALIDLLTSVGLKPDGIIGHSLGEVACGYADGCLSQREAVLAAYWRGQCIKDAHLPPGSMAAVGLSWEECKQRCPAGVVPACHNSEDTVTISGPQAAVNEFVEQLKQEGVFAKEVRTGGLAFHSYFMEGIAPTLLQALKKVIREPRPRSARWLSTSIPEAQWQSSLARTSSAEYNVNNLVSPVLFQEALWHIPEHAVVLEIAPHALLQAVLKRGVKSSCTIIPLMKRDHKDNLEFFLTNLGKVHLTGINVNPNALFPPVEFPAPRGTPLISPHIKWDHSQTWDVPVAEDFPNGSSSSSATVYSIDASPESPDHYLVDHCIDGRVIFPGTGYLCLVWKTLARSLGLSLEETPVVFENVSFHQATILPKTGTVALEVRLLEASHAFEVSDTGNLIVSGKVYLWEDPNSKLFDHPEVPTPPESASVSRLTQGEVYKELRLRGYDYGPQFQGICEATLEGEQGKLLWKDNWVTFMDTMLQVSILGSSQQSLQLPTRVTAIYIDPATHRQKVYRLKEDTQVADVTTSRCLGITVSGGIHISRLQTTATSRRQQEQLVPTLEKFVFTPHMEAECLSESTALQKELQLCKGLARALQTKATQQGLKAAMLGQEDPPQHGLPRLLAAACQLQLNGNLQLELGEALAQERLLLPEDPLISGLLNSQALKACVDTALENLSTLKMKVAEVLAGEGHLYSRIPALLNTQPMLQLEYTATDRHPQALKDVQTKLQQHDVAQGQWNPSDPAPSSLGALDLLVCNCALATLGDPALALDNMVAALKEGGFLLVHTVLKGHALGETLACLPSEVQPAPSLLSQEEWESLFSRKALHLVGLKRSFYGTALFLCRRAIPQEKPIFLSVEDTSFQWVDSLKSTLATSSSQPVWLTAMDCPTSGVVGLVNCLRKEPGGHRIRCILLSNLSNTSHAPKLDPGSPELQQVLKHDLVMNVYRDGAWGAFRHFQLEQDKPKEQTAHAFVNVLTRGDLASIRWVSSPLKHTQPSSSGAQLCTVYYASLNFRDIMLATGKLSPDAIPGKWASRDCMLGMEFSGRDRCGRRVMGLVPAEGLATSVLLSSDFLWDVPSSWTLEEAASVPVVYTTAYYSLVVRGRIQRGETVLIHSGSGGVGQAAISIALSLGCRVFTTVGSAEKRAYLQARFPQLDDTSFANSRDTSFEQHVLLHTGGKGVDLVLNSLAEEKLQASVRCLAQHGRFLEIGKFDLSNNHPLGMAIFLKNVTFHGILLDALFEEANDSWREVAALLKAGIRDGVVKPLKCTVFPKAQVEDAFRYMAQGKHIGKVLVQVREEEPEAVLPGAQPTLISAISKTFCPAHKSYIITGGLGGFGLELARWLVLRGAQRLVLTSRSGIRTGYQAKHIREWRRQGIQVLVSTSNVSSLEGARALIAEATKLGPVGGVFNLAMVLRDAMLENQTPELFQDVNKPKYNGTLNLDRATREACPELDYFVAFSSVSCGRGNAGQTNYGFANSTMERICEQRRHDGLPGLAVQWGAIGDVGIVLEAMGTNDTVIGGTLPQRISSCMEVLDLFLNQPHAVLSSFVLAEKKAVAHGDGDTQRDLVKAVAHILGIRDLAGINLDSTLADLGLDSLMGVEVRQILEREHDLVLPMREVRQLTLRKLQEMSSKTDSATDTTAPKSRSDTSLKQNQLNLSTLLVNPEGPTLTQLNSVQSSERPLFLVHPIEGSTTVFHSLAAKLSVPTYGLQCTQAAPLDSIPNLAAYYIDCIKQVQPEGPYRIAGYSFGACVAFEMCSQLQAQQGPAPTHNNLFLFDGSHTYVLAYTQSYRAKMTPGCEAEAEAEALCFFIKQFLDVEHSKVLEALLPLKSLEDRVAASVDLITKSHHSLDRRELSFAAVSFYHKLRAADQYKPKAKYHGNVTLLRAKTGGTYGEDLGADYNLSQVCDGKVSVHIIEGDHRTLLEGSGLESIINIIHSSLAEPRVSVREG

| FASN activity, % of vehicle group [1] | reduction of FASN activity ([1]; 56 dpi) | half-life at 0.5 mM [2] [min] | Molecule | decrease in mRNA levels of TNF-α, IL-1β and IL-6 compared to vehicle (TNF-α, IL-1β and IL-6; 14 dpi) | decrease in mRNA levels of TNF-α, IL-1β and IL-6 compared to vehicle (TNF-α, IL-1β and IL-6; 56 dpi) | nuclear NF-κB levels (NF-κB) | half-life (t1/2) [2] | mRNA levels of IL-6 compared to vehicle (TNF-α, IL-1β and IL-6; 56 dpi) |
| --- | --- | --- | --- | --- | --- | --- | --- | --- |
| 61±8 % of vehicle group | 32±9 % of vehicle | 24 | O=C(Oc1ccc(-c2ccc(OC(=O)c3cc(O)c(O)c(O)c3)cc2)cc1)c1cc(O)c(O)c(O)c1 [Compound 30, 4,4′-Bis [(3,4,5-trihydroxybenzoyl)oxy]-1,1′-biphenyl] | ~3 fold | not observed | reduced |  | slight decrease |
| No differences |  | 18 | O=C(Oc1cccc2c(OC(=O)c3cc(O)c(O)c(O)c3)cccc12)c1cc(O)c(O)c(O)c1 [Compound 23, 1,5-Bis [(3,4,5-trihydroxybenzoyl)oxy] naphthalene] | no differences |  | no changes |  |  |

| Molecule | FASN activity, % of vehicle group [1] | reduction of FASN activity ([1]; 56 dpi) | half-life at 0.5 mM [2] [min] | decrease in mRNA levels of TNF-α, IL-1β and IL-6 compared to vehicle (TNF-α, IL-1β and IL-6; 14 dpi) | decrease in mRNA levels of TNF-α, IL-1β and IL-6 compared to vehicle (TNF-α, IL-1β and IL-6; 56 dpi) | nuclear NF-κB levels (NF-κB) | half-life (t1/2) [2] | mRNA levels of IL-6 compared to vehicle (TNF-α, IL-1β and IL-6; 56 dpi) |
| --- | --- | --- | --- | --- | --- | --- | --- | --- |
| epigallocatechin-3-gallate [EGCG] | 57±8 % of vehicle group |  |  | ~3 fold | not observed | reduced | < 0,1 h |  |
